The target of one test is HLA DRB1 *0802 (Homo sapiens, UniProt P01903+P01911, A100R/A103L/A169T/F76Y/H45Y/I96F/K41T/L162R/M171V/P40S/Q125H/Q178H/Q39Y/Q99D/R218S/R42G/S66Y/V115G/W38E). The test is described as follows: IC50nM to purified HLA | DRB1 *0802. As for the experimental part:
(§1) Table printed on a drawing sheet, FIG. 1 (contd.)
Head of the field: IC50nM to purified HLA | DRB1 *0802
(§2) First copying reader's note: Continued from the preceding sheet of FIG. 1; decimal commas are used, the analog names give the substituted residues and positions in PADRE, and some values are printed in italics or bold and some SEQ ID NOs bold and underlined without a legend on this sheet.
Where the first naming reader finds the target: head: IC50nM to purified HLA | DRB1 *0802

The next test addresses HLA DRB1 *0901 (Homo sapiens, UniProt P01903+P01911, A100R/A103E/D57H/D86V/F55Y/F60I/F76Y/I96F/K127E/L162R/M171V/P40D/Q125H/Q99R/R33Q/R42F/S133A/S66N/T210M/V115G/W38K/Y107V/Y59G/Y89S). The test is described as follows: IC50nM to purified HLA | DRB1 *0901. On the procedure:
as §1
Head of the field: IC50nM to purified HLA | DRB1 *0901
as §2
Where the first naming reader finds the target: head: IC50nM to purified HLA | DRB1 *0901

In another test the target is HLA DRB1 *1501 (Homo sapiens, UniProt P01903+P01911). Put plainly: IC50nM to purified HLA | DRB1 *1501. As for the experimental part:
as §1
Head of the field: IC50nM to purified HLA | DRB1 *1501
as §2
Where the first naming reader finds the target: head: IC50nM to purified HLA | DRB1 *1501

Another test has as its target HLA DRB1 *0401 (Homo sapiens, UniProt P01903+P01911, A100K/A169T/F76Y/I96L/K127E/L162R/M171V/N62H/P40V/Q125Y/R42H/S133A/S149N/S66Y/V115G/V209L/W38E). Put plainly: IC50nM to purified HLA | DRB1 *0401. As for the experimental part: as §1
Head of the field: IC50nM to purified HLA | DRB1 *0401
as §2
Where the first naming reader finds the target: head: IC50nM to purified HLA | DRB1 *0401

The target of the next test is HLA DRB1 *1101 (Homo sapiens, UniProt P01903+P01911, A100R/A169T/A87E/I96F/K41T/L162R/M171V/P40S/Q125H/Q178H/Q39Y/Q99D/R42S/S66Y/T262R/V115G/W38E). The test is described as follows: IC50nM to purified HLA | DRB1 *1101. As for the experimental part:
as §1
Head of the field: IC50nM to purified HLA | DRB1 *1101
as §2
Where the first naming reader finds the target: head: IC50nM to purified HLA | DRB1 *1101

The next test addresses HLA DRB1 *0404 (Homo sapiens, UniProt P01903+P01911, A100R/A169T/F76Y/I96L/K127E/L162R/M171V/N62H/P40V/Q125Y/R42H/S133A/S149N/S66Y/V209L/W38E). Put plainly: IC50nM to purified HLA | DRB1 *0404. As for the experimental part:
as §1
Head of the field: IC50nM to purified HLA | DRB1 *0404
as §2
Where the first naming reader finds the target: head: IC50nM to purified HLA | DRB1 *0404

The next test concerns the target HLA DRB1 *0405 (Homo sapiens, UniProt P01903+P01911, A100R/A169T/D86S/F76Y/I96L/K127E/L162R/M171V/N62H/P40V/Q125Y/R42H/S133A/S149N/S66Y/V115G/V209L/W38E). Put plainly: IC50nM to purified HLA | DRB1 *0405. As for the experimental part: as §1
Head of the field: IC50nM to purified HLA | DRB1 *0405
as §2
Where the first naming reader finds the target: head: IC50nM to purified HLA | DRB1 *0405

The target of another test is HLA DRB4 *0101 (Homo sapiens, UniProt P01903+P13762, G164S). The test is described as follows: IC50nM to purified HLA | DRB4 *0101. As for the experimental part:
as §1
Head of the field: IC50nM to purified HLA | DRB4 *0101
as §2
Where the first naming reader finds the target: head: IC50nM to purified HLA | DRB4 *0101

Another test deals with HLA DRB5 *0101 (Homo sapiens, UniProt P01903+Q30154). The test is described as follows: IC50nM to purified HLA | DRB5 *0101. On the procedure:
as §1
Head of the field: IC50nM to purified HLA | DRB5 *0101
as §2
Where the first naming reader finds the target: head: IC50nM to purified HLA | DRB5 *0101

The target in a further test is HLA DRB1 *0301 (Homo sapiens, UniProt P01903+P01911, A100K/A102G/A103R/A169T/F55Y/I96L/K41T/L162R/M171V/P40S/Q125H/Q178H/Q39Y/R42S/S66N/T106N/T262R/W38E/Y61H). Put plainly: IC50nM to purified HLA | DRB1 *0301. As for the experimental part:
as §1
Head of the field: IC50nM to purified HLA | DRB1 *0301
as §2
Where the first naming reader finds the target: head: IC50nM to purified HLA | DRB1 *0301

The target of the next test is HLA DRB1 *0101 (Homo sapiens, UniProt P01903+P01911, A100R/D57E/F55L/F60I/F76Y/I96L/L162R/M171V/P40L/Q125E/R42F/V115G/Y59C). The test is described as follows: IC50nM to purified HLA | DRB1 *0101. On the procedure: as §1
Head of the field: IC50nM to purified HLA | DRB1 *0101
as §2
Where the first naming reader finds the target: head: IC50nM to purified HLA | DRB1 *0101

For a further test, the target named is HLA DRB1 *1302 (Homo sapiens, UniProt P01903+P01911, A100E/A169T/K41T/L162R/M171V/P40S/Q125H/Q178H/Q39Y/Q99D/R42S/S66N/T262R/V115G/W38E/Y61H). Put plainly: IC50nM to purified HLA | DRB1 *1302. As for the experimental part:
as §1
Head of the field: IC50nM to purified HLA | DRB1 *1302
as §2
Where the first naming reader finds the target: head: IC50nM to purified HLA | DRB1 *1302

Where no end group is shown, it is not given here.

HLA DRB1 *1101, sequence (P01903 26-254 limits assumed, other chains not shown): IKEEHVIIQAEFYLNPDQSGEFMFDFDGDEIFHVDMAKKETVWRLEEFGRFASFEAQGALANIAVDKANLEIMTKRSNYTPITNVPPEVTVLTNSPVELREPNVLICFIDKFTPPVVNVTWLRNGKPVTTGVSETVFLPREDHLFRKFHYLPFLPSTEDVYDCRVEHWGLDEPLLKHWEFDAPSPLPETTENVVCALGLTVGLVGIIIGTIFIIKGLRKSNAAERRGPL
HLA DRB4 *0101, sequence (P01903 26-254 limits assumed): as the sequence (P01903 26-254 limits assumed, other chains not shown) above
HLA DRB4 *0101, sequence (P13762 whole entry G164S): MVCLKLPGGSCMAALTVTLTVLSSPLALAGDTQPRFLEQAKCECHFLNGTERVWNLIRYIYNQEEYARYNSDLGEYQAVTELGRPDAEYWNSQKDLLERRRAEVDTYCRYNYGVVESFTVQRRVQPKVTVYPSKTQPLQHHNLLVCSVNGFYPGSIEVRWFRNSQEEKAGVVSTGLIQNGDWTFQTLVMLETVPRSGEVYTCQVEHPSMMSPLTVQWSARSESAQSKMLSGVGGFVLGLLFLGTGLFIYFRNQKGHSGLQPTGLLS
HLA DRB1 *0301, sequence (P01903 26-254 limits assumed, other chains not shown): as the sequence (P01903 26-254 limits assumed, other chains not shown) above
HLA DRB1 *1302, sequence (P01903 26-254 limits assumed, other chains not shown): as above

The term IC50 denotes the concentration that gives 50% inhibition. Read a high IC50 as weaker potency. With AAAEFVAAWTLKAAA [SEQ ID NO: 45], the IC50 on HLA DRB1 *0802 is 16 nM; against HLA DRB1 *0901 it was 41 nM; against HLA DRB1 *1501, 56 nM; against HLA DRB1 *0401, 3.8 nM; on HLA DRB1 *1101, 45 nM; against HLA DRB1 *0404 it was 2.8 nM. Further, the IC50 was found to be 9.8 nM against HLA DRB1 *0405; 332 nM at HLA DRB4 *0101; 6.7 nM against HLA DRB5 *0101; 169 nM against HLA DRB1 *0301; 2.5 nM against HLA DRB1 *0101; 840 nM at HLA DRB1 *1302.

With AAAHFVAAFTLHAAA [SEQ ID NO: 28], the IC50 against HLA DRB1 *0802 amounted to 11 nM; at HLA DRB1 *0901, 24 nM; on HLA DRB1 *1501, 13 nM; on HLA DRB1 *0401, 2.2 nM; on HLA DRB1 *1101, 8.1 nM; at HLA DRB1 *0404 it was 3.1 nM. For the same sequence, the IC50 against HLA DRB4 *0101 was found to be 100 nM; on HLA DRB1 *0301 it was 228 nM; at HLA DRB1 *0101 it was 4 nM.

Regarding AAAHFVAAFTLKAEA [SEQ ID NO: 38], the IC50 against HLA DRB1 *0802 turned out to be 19 nM; at HLA DRB1 *0901, 46 nM; on HLA DRB1 *1501, 31 nM; against HLA DRB1 *0401 it was 6.4 nM; on HLA DRB1 *1101 it was 41 nM; against HLA DRB1 *0404 it was 8.1 nM. The IC50 against HLA DRB1 *0405 came out at 8.1 nM; against HLA DRB5 *0101, 19 nM; at HLA DRB1 *1302, 801 nM.

As for AAAHFVAAWTLKADA [SEQ ID NO: 31], the IC50 against HLA DRB1 *0802 came to 24 nM; on HLA DRB1 *0401, 8.5 nM; against HLA DRB1 *0404, 7.1 nM; against HLA DRB1 *0405, 16 nM; at HLA DRB4 *0101, 2100 nM; on HLA DRB5 *0101, 23 nM. For the same sequence, the IC50 against HLA DRB1 *0101 was 5.1 nM; at HLA DRB1 *1302, 875 nM.

As to AAAHFVAAWTLKAEA [SEQ ID NO: 36], the IC50 against HLA DRB1 *0802 came to 22 nM; at HLA DRB1 *0901 it was 44 nM; against HLA DRB1 *1501, 20 nM; against HLA DRB1 *0401 it was 6.4 nM; against HLA DRB1 *1101, 53 nM; against HLA DRB4 *0101, 677 nM. Further, the IC50 against HLA DRB5 *0101 amounted to 18 nM; at HLA DRB1 *0101, 5.1 nM; at HLA DRB1 *1302, 1100 nM.

Turning to AAAHFVAAYTLKAEA [SEQ ID NO: 37], the 50% inhibitory concentration (IC50) came to 35 nM on HLA DRB1 *0901; 10 nM at HLA DRB1 *1501; 7.5 nM against HLA DRB1 *0401; 44 nM on HLA DRB1 *1101; 5.3 nM against HLA DRB1 *0404; 11 nM on HLA DRB1 *0405. Besides, the IC50 on HLA DRB4 *0101 turned out to be 721 nM; on HLA DRB5 *0101 it was 16 nM; against HLA DRB1 *0101 it was 6.9 nM; on HLA DRB1 *1302, 1010 nM.

Take AAAKFVAAWTLKADA [SEQ ID NO: 30]: the IC50 against HLA DRB1 *0901 turned out to be 27 nM; against HLA DRB1 *1501, 19 nM; against HLA DRB1 *0401 it was 7.3 nM; at HLA DRB1 *0404, 9.7 nM; against HLA DRB1 *0405 it was 17 nM; against HLA DRB5 *0101, 19 nM. The IC50 against HLA DRB1 *0301 turned out to be 1160 nM; against HLA DRB1 *0101 it was 5 nM; at HLA DRB1 *1302 it was 807 nM.

Regarding AAAKFVAAWTLKAEA [SEQ ID NO: 35], the IC50 was found to be 21 nM against HLA DRB1 *0802; 41 nM at HLA DRB1 *0901; 23 nM on HLA DRB1 *1501; 6.5 nM against HLA DRB1 *0401; 36 nM against HLA DRB1 *1101; 8.4 nM against HLA DRB1 *0405. The IC50 worked out at 710 nM at HLA DRB4 *0101 and 17 nM against HLA DRB5 *0101.

Regarding AAANFVAAWTLKAAA [SEQ ID NO: 50], the IC50 against HLA DRB1 *0802 was 8.5 nM; against HLA DRB1 *1501, 12 nM; at HLA DRB1 *1101, 14 nM; at HLA DRB1 *0404, 5.9 nM; against HLA DRB1 *0405 it was 18 nM; against HLA DRB5 *0101, 8.7 nM. Besides, the values for the IC50 against HLA DRB1 *0301 and against HLA DRB1 *0101 were 372 nM and 4.4 nM, respectively.
